Assay results: publication PMC2241828, “Amyloglucosidase enzymatic reactivity inside lipid vesicles” (Journal of Biological Engineering, 2007)

Target: T1, amyloglucosidase (AMG), EC 3.2.1.3 (Aspergillus niger, UniProt P69328)
T1 construct: gene GLAA; commercial enzyme solution (Sigma A-3042), diluted with water
Assay: initial rates plus fit of glucose-time curves (HPLC, starch-iodine) to Michaelis-Menten model with product inhibition
Type: biochemical
Conditions: free enzyme; soluble starch as substrate; pH 4.5, 55 °C; competitive product inhibition (assumed model); read-out: Ki (mg mL^-1) (converted)

T1 sequence (P69328 25-640): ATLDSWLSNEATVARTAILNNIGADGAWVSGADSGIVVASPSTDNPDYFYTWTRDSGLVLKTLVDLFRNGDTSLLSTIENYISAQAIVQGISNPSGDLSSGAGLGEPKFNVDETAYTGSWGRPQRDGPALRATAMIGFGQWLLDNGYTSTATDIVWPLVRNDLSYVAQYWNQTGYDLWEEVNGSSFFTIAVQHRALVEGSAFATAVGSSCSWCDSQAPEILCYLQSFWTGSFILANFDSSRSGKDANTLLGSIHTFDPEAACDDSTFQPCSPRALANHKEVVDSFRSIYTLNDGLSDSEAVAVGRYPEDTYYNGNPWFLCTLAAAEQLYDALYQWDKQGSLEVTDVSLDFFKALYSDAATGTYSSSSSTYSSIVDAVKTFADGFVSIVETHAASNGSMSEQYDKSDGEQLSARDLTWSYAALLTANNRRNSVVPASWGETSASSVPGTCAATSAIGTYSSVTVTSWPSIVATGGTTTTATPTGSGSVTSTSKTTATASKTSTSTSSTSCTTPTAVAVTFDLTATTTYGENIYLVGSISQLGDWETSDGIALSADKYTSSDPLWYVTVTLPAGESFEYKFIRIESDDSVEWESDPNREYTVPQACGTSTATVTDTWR

OC[C@H]1OC(O)[C@H](O)[C@@H](O)[C@@H]1O (stereo partly shown) [glucose]
Ki: 555 µM
